Measurements from ChEMBL document CHEMBL3813667, “Triterpene sapogenin-polyarginine conjugates exhibit promising antibacterial activity against Gram-positive strains” (Bioorg Med Chem, 2016).
≈ marks a conversion by molar mass, not a printed value. Calls of active or inactive are those of the source. No cut-off for these calls is given here.

How the values were obtained:
Staphylococcus aureus [1] = test: Antibacterial activity against Staphylococcus aureus ATCC 25923 after 16 hrs by broth microdilution method; assay type: functional; settings: ATCC 25923, 16 h
Bacillus spizizenii [2] = test: Antibacterial activity against Bacillus subtilis ATCC 6633 after 16 hrs by broth microdilution method; assay type: functional; settings: ATCC 6633, 16 h
Escherichia coli [3] = test: Antibacterial activity against Escherichia coli ATCC 25922 after 16 hrs by broth microdilution method; assay type: functional; settings: ATCC 25922, 16 h
[4] = Toxicity against human erythrocytes assessed as hemolysis after 1 hr by spectrophotometric analysis; assay type: cell-based, Erythrocyte
[5] = Therapeutic index, ratio of HC50 for human erythrocytes to MIC for Staphylococcus aureus ATCC 25923; settings: read-out: TI
[6] = Therapeutic index, ratio of HC50 for human erythrocytes to MIC for Bacillus subtilis ATCC 6633; settings: read-out: TI
[7] = Metabolic stability in human plasma assessed as compound remaining after 6 hrs by HPLC analysis; assay type: ADME, cell-free; settings: read-out: Stability
[8] = Metabolic stability in human plasma assessed as compound remaining after 18 hrs by HPLC analysis; assay type: ADME, cell-free; settings: read-out: Stability
MCF7 = test: Cytotoxicity against human MCF7 cells assessed as cell viability at 62.5 ug/ml after 6 hrs by spectroscopic analysis; assay type: cell-based; settings: mcf7, 6 h
Staphylococcus aureus [9] = test: Antibacterial activity against Staphylococcus aureus ATCC 25923 assessed as cell lysis at 4 times MIC after 2 hrs by transmission electron microscopic analysis; assay type: functional, organism-based
[10] = Selectivity index, ratio of cytotoxicity for human MCF7 cells to MIC for Bacillus subtilis ATCC 6633; assay type: toxicity, cell-based; settings: read-out: Selectivity Index
Staphylococcus aureus [11] = test: Antibacterial activity against Staphylococcus aureus ATCC 25923 at 1 mg/ml up to 18 hrs by broth microdilution method in presence of human plasma; assay type: functional; settings: ATCC 25923, Plasma
Staphylococcus aureus [12] = test: Antibacterial activity against Staphylococcus aureus ATCC 25923 at 1 mg/ml after 3 hrs by broth microdilution method in presence of human plasma; assay type: functional; settings: ATCC 25923, Plasma
Staphylococcus aureus [13] = test: Antibacterial activity against Staphylococcus aureus ATCC 25923 assessed as disruption of cell membrane at 4 times MIC after 2 hrs by DAPI/propidium iodide dye staining based confocal laser scanning microscopic analysis; assay type: functional, organism-based
Staphylococcus aureus [14] = test: Ratio of MIC for antibacterial activity against Staphylococcus aureus ATCC 25923 in absence of human plasma to MIC for antibacterial activity against Staphylococcus aureus ATCC 25923 in presence of human plasma; assay type: functional
[15] = Solubility of the compound in water at 40 mg sonicated for 15 mins at 25 degC measured after 5 hrs; assay type: physicochemical
Staphylococcus aureus [16] = test: Antibacterial activity against Staphylococcus aureus ATCC 25923 after 16 hrs by broth microdilution method in presence of peptide-R3; assay type: functional; settings: ATCC 25923, 16 h
Bacillus spizizenii [17] = test: Antibacterial activity against Bacillus subtilis ATCC 6633 after 16 hrs by broth microdilution method in presence of peptide-R3; assay type: functional; settings: ATCC 6633, 16 h
Escherichia coli [18] = test: Antibacterial activity against Escherichia coli ATCC 25922 after 16 hrs by broth microdilution method in presence of peptide-R3; assay type: functional; settings: ATCC 25922, 16 h

Compound | MIC (Staphylococcus aureus [1]) | MIC (Bacillus spizizenii [2]) | MIC (Escherichia coli [3]) | HC50 at 1 h [4] | selectivity ratio [5] | selectivity ratio [6] | remaining at 6 h [7] | remaining at 18 h [8] | Activity (MCF7) | Activity (Staphylococcus aureus [9]) | selectivity ratio [10] | MIC (Staphylococcus aureus [11]) | MIC (Staphylococcus aureus [12]) | Activity (Staphylococcus aureus [13]) | Ratio (Staphylococcus aureus [14]) | solubility at 5 h [15] | MIC (Staphylococcus aureus [16]) | MIC (Bacillus spizizenii [17]) | MIC (Escherichia coli [18])
H-GIGKFLKKAKKFGKAFVKILKK-OH | 1.5 µM | 1.5 µM | 3.1 µM | 153 µM | 100 | 100 | 54% | 1% | – | – | – | – | – | – | – | – | – | – | –
C=C(C)[C@@H]1CC[C@]2(C(=O)O)CC[C@]3(C)[C@H](CC[C@@H]4[C@@]5(C)CC[C@H](OC(=O)CCc6cn(CC(=O)N[C@@H](CCCNC(=N)N)C(=O)N[C@@H](CCCNC(=N)N)C(=O)N[C@@H](CCCNC(=N)N)C(=O)O)nn6)C(C)(C)[C@@H]5CC[C@]43C)[C@@H]12 | 3.5 µM (≈ 3.87 µg/mL) | 1.8 µM (≈ 1.99 µg/mL) | > 113 µM | 215 µM | 62 | 125 | – | 87% | Non-toxic | Active | 20 | 3.5 µM | 3.5 µM | Active | 2 | – | – | – | –
C=C(C)[C@@H]1CC[C@]2(C(=O)OCc3cn(CC(=O)N[C@@H](CCCNC(=N)N)C(=O)N[C@@H](CCCNC(=N)N)C(=O)N[C@@H](CCCNC(=N)N)C(=O)O)nn3)CC[C@]3(C)[C@H](CC[C@@H]4[C@@]5(C)CC[C@H](O)C(C)(C)[C@@H]5CC[C@]43C)[C@@H]12 | 3.7 µM (≈ 3.94 µg/mL) | 3.7 µM (≈ 3.94 µg/mL) | 14.7 µM (≈ 15.6 µg/mL) | 80 µM | 22 | 22 | – | – | – | – | – | – | – | – | – | 98 mg/mL (≈ 92.1 mM) | – | – | –
C=C(C)[C@@H]1CC[C@]2(C(=O)O)CC[C@]3(C)[C@H](CC[C@@H]4[C@@]5(C)CC[C@H](O)C(C)(C)[C@@H]5CC[C@]43C)[C@@H]12 [BETULINIC ACID] | 547 µM (≈ 250 µg/mL) | 547 µM (≈ 250 µg/mL) | > 1100 µM | – | – | – | – | – | – | – | – | – | – | – | – | – | > 531 µM | > 531 µM | > 531 µM
C=C(C)[C@@H]1CC[C@]2(C(=O)OCc3cn(CC(=O)N[C@@H](CCCNC(=N)N)C(=O)N[C@@H](CCCNC(=N)N)C(=O)N[C@@H](CCCNC(=N)N)C(=O)N[C@@H](CCCNC(=N)N)C(=O)N[C@@H](CCCNC(=N)N)C(=O)O)nn3)CC[C@]3(C)[C@H](CC[C@@H]4[C@@]5(C)CC[C@H](O)C(C)(C)[C@@H]5CC[C@]43C)[C@@H]12 | 5.7 µM (≈ 7.85 µg/mL) | 2.8 µM (≈ 3.85 µg/mL) | > 91 µM | 35 µM | 6 | 12 | – | – | – | – | – | – | – | – | – | 220 mg/mL (≈ 160 mM) | – | – | –
C=C(C)[C@@H]1CC[C@]2(C(=O)OCc3cn(CC(=O)N[C@@H](CCCNC(=N)N)C(=O)N[C@@H](CCCNC(=N)N)C(=O)N[C@@H](CCCNC(=N)N)C(=O)N[C@@H](CCCNC(=N)N)C(=O)N[C@@H](CCCNC(=N)N)C(=O)N[C@@H](CCCNC(=N)N)C(=O)N[C@@H](CCCNC(=N)N)C(=O)N[C@@H](CCCNC(=N)N)C(=O)O)nn3)CC[C@]3(C)[C@H](CC[C@@H]4[C@@]5(C)CC[C@H](O)C(C)(C)[C@@H]5CC[C@]43C)[C@@H]12 | – | – | – | 55 µM | 13 | 13 | – | – | – | – | – | – | – | – | – | 636 mg/mL (≈ 345 mM) | – | – | –
